Experimental data published in ChEMBL document CHEMBL4765330, “Synthesis of some steroidal mitocans of nanomolar cytotoxicity acting by apoptosis” (Eur J Med Chem, 2020).

Assays:
in vitro [1] = conditions: mouse, NIH3T3 cells versus MCF7 cells
Description: Selectivity index, ratio of IC50 for mouse NIH3T3 cells to IC50 for human MCF7 cells incubated for 72 hrs by SRB assay

in vitro [2] = conditions: mouse, NIH3T3 cells versus A2780 cells
Description: Selectivity index, ratio of IC50 for mouse NIH3T3 cells to IC50 for human A2780 cells incubated for 72 hrs by SRB assay

MCF7 = assay: Cytotoxicity against human MCF7 cells assessed as reduction in cell viability incubated for 72 hrs by SRB assay; format: functional, cell-based
FaDu = assay: Cytotoxicity against human FaDu cells assessed as reduction in cell viability incubated for 72 hrs by SRB assay; format: functional, cell-based
in vitro [3] = conditions: mouse, NIH3T3 cells versus FaDu cells
Description: Selectivity index, ratio of IC50 for mouse NIH3T3 cells to IC50 for human FaDu cells incubated for 72 hrs by SRB assay

NIH3T3 = assay: Cytotoxicity against mouse NIH3T3 cells assessed as reduction in cell viability incubated for 72 hrs by SRB assay; format: cell-based
[4] = Selectivity index, ratio of IC50 for mouse NIH3T3 cells to IC50 for human A375 cells incubated for 72 hrs by SRB assay; format: toxicity; conditions: NIH3T3 cells versus A375 cells, read-out: Ratio IC50
A-375 [5] = assay: Cytotoxicity against human A375 cells assessed as reduction in cell viability incubated for 72 hrs by SRB assay; format: functional, cell-based
A2780 [6] = assay: Cytotoxicity against human A2780 cells assessed as reduction in cell viability incubated for 72 hrs by SRB assay; format: functional, cell-based
HT-29 = assay: Cytotoxicity against human HT29 cells assessed as reduction in cell viability incubated for 72 hrs by SRB assay; format: functional, cell-based
A2780 [7] = assay: Cell cycle arrest in human A2780 cells assessed as apoptotic cells after 48 hrs by PI staining based flow cytometric analysis (reference value: 0.48 %); format: functional
A2780 [8] = assay: Cell cycle arrest in human A2780 cells assessed as accumulation at G1 phase after 48 hrs by PI staining based flow cytometric analysis (reference value: 54.53 %); format: functional
[9] = Drug uptake in nucleus of human A2780 cells at 0.054 mM incubated for 1 hr with compound and Hoechst 33342 and followed by further incubation with Rhodamine123 for 20 mins by fluorescence microscopic method; format: ADME, subcellular; conditions: a2780, 1.333 h, 54 µM, time 80 min
A2780 [10] = assay: Cell cycle arrest in human A2780 cells assessed as accumulation at G2/M phase after 48 hrs by PI staining based flow cytometric analysis (reference value: 11.25 %); format: functional
A-375 [11] = assay: Induction of apoptosis in human A375 cells assessed as late apoptotic cells after 48 hrs by annexin V-FITC and propidium iodide staining based flow cytometric analysis; format: functional
A-375 [12] = assay: Induction of apoptosis in human A375 cells assessed as apoptotic cells after 48 hrs by annexin V-FITC and propidium iodide staining based flow cytometric analysis; format: functional
in vitro [13] = conditions: mouse, NIH3T3 cells versus HT29 cells
Description: Selectivity index, ratio of IC50 for mouse NIH3T3 cells to IC50 for human HT29 cells incubated for 72 hrs by SRB assay

A2780 [14] = assay: Cell cycle arrest in human A2780 cells assessed as accumulation at S phase after 48 hrs by PI staining based flow cytometric analysis (reference value: 34.22 %); format: functional
A-375 [15] = assay: Induction of apoptosis in human A375 cells assessed as necrotic cells after 48 hrs by annexin V-FITC and propidium iodide staining based flow cytometric analysis; format: functional
[16] = Drug uptake in mitochondria of human A2780 cells at 0.054 mM incubated for 1 hr with compound and Hoechst 33342 and followed by further incubation with Rhodamine123 for 20 mins by fluorescence microscopic method; format: ADME; conditions: a2780, 1.333 h, 54 µM, time 80 min
[17] = Homo sapiens, MCF7, 72 h, read-out: IC50
[18] = Homo sapiens, FaDu, 72 h, read-out: IC50
[19] = Mus musculus, NIH3T3, 72 h, read-out: IC50
[20] = Homo sapiens, A-375, 72 h, read-out: IC50
[21] = Homo sapiens, A2780, 72 h, read-out: IC50
[22] = Homo sapiens, HT-29, 72 h, read-out: IC50

SMILES	selectivity ratio at 72 h (in vitro [1])	selectivity ratio at 72 h (in vitro [2])	IC50 (MCF7; [17]) [nM]	IC50 (FaDu; [18]) [nM]	selectivity ratio at 72 h (in vitro [3])	IC50 (NIH3T3; [19]) [nM]	selectivity ratio at 72 h [4]	IC50 (A-375 [5]; [20]) [nM]	IC50 (A2780 [6]; [21]) [nM]	IC50 (HT-29; [22]) [nM]	also measured
C=C(c1ccc(C(=O)O)cc1)c1cc2c(cc1C)C(C)(C)CCC2(C)C [BEXAROTENE]	1.8	0.6	10600	29800	0.6	18700	0.7	28400	26500	> 30000	–
CCN(CC)c1ccc2c(-c3ccccc3C(=O)N3CCNCC3)c3ccc(=[N+](CC)CC)cc-3oc2c1	–	1.1	17800	> 30000	–	> 30000	–	> 30000	26400	> 30000	–
COc1cccc2c1C(=O)c1c(O)c3c(c(O)c1C2=O)C[C@@](O)(C(=O)CO)C[C@@H]3O[C@H]1C[C@H](N)[C@H](O)[C@H](C)O1 [DOXORUBICIN]	–	–	–	–	–	400	–	–	10	900	–
C[C@]12C=CC(=O)C=C1CC[C@@H]1[C@@H]2C(=O)C[C@@]2(C)[C@H]1CC[C@]2(O)C(=O)CO [PREDNISONE]	–	–	> 30000	> 30000	–	> 30000	–	> 30000	–	> 30000	–
CCN(CC)c1ccc2c(-c3ccccc3C(=O)O[C@H]3CC[C@H]4[C@@H]5CCC6=CC(=O)CC[C@]6(C)[C@H]5CC[C@]34C)c3ccc(=[N+](CC)CC)cc-3oc2c1.[Cl-]	3.1	2.2	60	200	1	200	1.1	160	80	120	Activity (A2780 [7]): 3.29%; Activity (A2780 [8]): 51.77%; Drug uptake [9]: Not Active; Activity (A2780 [10]): 3.48%; Activity (A-375 [11]): 12%; Activity (A-375 [12]): 5%; selectivity ratio at 72 h (in vitro [13]): 1.5; Activity (A2780 [14]): 44.74%; Activity (A-375 [15]): 20%; Drug uptake [16]: Active
CN[C@@H]1C[C@H]2O[C@@](C)([C@@H]1OC)n1c3ccccc3c3c4c(c5c6ccccc6n2c5c31)C(=O)NC4 [STAUROSPORINE]	–	–	–	–	–	8	–	–	–	–	–
CCN(CC)c1ccc2c(-c3ccccc3C(=O)O[C@H]3CC[C@@]4(C)C(=CC[C@H]5[C@@H]6CC[C@H]([C@H](C)CCCC(C)C)[C@@]6(C)CC[C@@H]54)C3)c3ccc(=[N+](CC)CC)cc-3oc2c1.[Cl-]	–	–	–	–	–	–	–	–	–	–	IC50 (MCF7; mcf7): Nd(Insoluble); IC50 (FaDu; fadu): Nd(Insoluble); IC50 (NIH3T3; nih3t3): Nd(Insoluble); IC50 (A-375 [5]; a-375): Nd(Insoluble); IC50 (A2780 [6]; a2780): Nd(Insoluble); IC50 (HT-29; ht-29): Nd(Insoluble)
CCN(CC)c1ccc2c(-c3ccccc3C(=O)O[C@H]3CC[C@@]4(C)C(=CC[C@@H]5[C@@H]4CC[C@]4(C)C(c6cccnc6)=CC[C@@H]54)C3)c3ccc(=[N+](CC)CC)cc-3oc2c1	1.6	1.8	200	200	1.8	300	1.7	200	100	200	selectivity ratio at 72 h (in vitro [13]): 1.1
C=C(c1ccc(C(=O)N2CCN(C(=O)c3ccccc3-c3c4ccc(=[N+](CC)CC)cc-4oc4cc(N(CC)CC)ccc34)CC2)cc1)c1cc2c(cc1C)C(C)(C)CCC2(C)C.[Cl-]	–	–	–	–	–	–	–	–	–	–	IC50 (MCF7; mcf7): Nd(Insoluble); IC50 (FaDu; fadu): Nd(Insoluble); IC50 (NIH3T3; nih3t3): Nd(Insoluble); IC50 (A-375 [5]; a-375): Nd(Insoluble); IC50 (A2780 [6]; a2780): Nd(Insoluble); IC50 (HT-29; ht-29): Nd(Insoluble)
C[C@]12CC[C@H](O)C=C1CC[C@@H]1[C@@H]2CC[C@]2(C)C(c3cccnc3)=CC[C@@H]12	–	–	–	–	–	–	–	–	–	–	IC50 (MCF7; mcf7): Nd(Insoluble); IC50 (FaDu; fadu): Nd(Insoluble); IC50 (NIH3T3; nih3t3): Nd(Insoluble); IC50 (A-375 [5]; a-375): Nd(Insoluble); IC50 (A2780 [6]; a2780): Nd(Insoluble); IC50 (HT-29; ht-29): Nd(Insoluble)
CCN(CC)c1ccc2c(-c3ccccc3C(=O)OCC(=O)[C@@]3(O)CC[C@H]4[C@@H]5CCC6=CC(=O)C=C[C@@]6(C)[C@H]5C(=O)C[C@@]43C)c3ccc(=[N+](CC)CC)cc-3oc2c1.[Cl-]	7.3	5.2	200	400	4.1	1800	1.8	100	300	600	Activity (A2780 [7]): 37.36%; Activity (A2780 [8]): 12.78%; Activity (A2780 [10]): 0%; Activity (A-375 [11]): 14%; Activity (A-375 [12]): 48%; selectivity ratio at 72 h (in vitro [13]): 2.9; Activity (A2780 [14]): 87.22%; Activity (A-375 [15]): 2%
